Measurements published in ChEMBL document CHEMBL1148724, “Design, synthesis, and biological activity of 5,10-dihydro-dibenzo[b,e][1,4]diazepin-11-one-based potent and selective Chk-1 inhibitors” (J Med Chem, 2007).

Each molecule was assayed against T1, Serine/threonine-protein kinase Chk1 (Homo sapiens, UniProt O14757) (assay: Inhibition of human recombinant Chk1).
T1 sequence (O14757 whole entry): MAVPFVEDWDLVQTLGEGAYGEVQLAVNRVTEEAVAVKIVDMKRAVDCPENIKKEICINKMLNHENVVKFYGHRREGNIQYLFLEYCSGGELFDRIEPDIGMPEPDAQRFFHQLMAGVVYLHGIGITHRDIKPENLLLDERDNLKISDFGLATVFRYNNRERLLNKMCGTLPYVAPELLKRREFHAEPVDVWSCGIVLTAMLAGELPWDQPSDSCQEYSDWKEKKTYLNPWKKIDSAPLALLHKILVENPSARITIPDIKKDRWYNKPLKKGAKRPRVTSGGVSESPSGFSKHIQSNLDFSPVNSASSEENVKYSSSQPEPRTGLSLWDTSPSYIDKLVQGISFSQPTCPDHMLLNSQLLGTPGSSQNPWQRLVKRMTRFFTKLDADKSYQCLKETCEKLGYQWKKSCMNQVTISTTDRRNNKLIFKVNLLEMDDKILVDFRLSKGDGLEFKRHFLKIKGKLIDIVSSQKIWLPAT

SMILES	IC50 [nM]
CCOc1cccc(-c2ccc3c(c2)Nc2ccccc2NC3=O)c1	> 10000
N#Cc1ccc(-c2ccc3c(c2)Nc2ccccc2NC3=O)cc1	> 10000
O=C1Nc2ccccc2S(=O)(=O)c2ccccc21	> 50000
O=C1Nc2ccccc2C(O)c2ccccc21 (stereo not given)	> 50000
COc1cc(-c2ccc3c(c2)Nc2ccccc2NC3=O)ccc1C(C)=O	48
COc1cc(-c2ccc3c(c2)Nc2ccccc2NC3=O)ccc1C(N)=O	88
N#Cc1cccc(-c2ccc3c(c2)Nc2ccccc2NC3=O)c1	970
CC(=O)c1cccc(-c2ccc3c(c2)Nc2ccccc2NC3=O)c1	2100
CC(=O)c1ccc(-c2ccc3c(c2)Nc2ccccc2NC3=O)cc1	> 10000
COc1cc(-c2ccc3c(c2)Nc2ccccc2NC3=O)ccc1[N+](=O)[O-]	10
COC(=O)c1ccc(-c2ccc3c(c2)Nc2ccccc2NC3=O)cc1OC	53
COc1cc(-c2ccc3c(c2)C(=O)Nc2ccccc2N3)ccc1O	> 10000

Now from value to molecule:

IC50 [nM]	SMILES
> 10000	O=C1Nc2ccccc2Nc2cc(-c3ccccc3)ccc21
8000	CC(=O)c1ccccc1-c1ccc2c(c1)Nc1ccccc1NC2=O
82	COc1cc(-c2ccc3c(c2)Nc2ccccc2NC3=O)ccc1O
33	COc1cc(-c2ccc3c(c2)Nc2ccccc2NC3=O)ccc1C#N
> 50000	O=c1[nH]c2ccccc2c(=O)c2ccccc12
500	COc1cccc(-c2ccc3c(c2)Nc2ccccc2NC3=O)c1
3600	COc1ccccc1-c1ccc2c(c1)Nc1ccccc1NC2=O
91	COc1cc(-c2ccc3c(c2)Nc2ccccc2NC3=O)ccc1Cl
